Here are results for one compound from US9808496B2, “Use of a myrtle extract as an anti-biofilm agent against P. acnes” (PIERRE FABRE DERMO-COSMETIQUE, priority 2012, dated 2017).

What all share (format): cell-based, Propionibacterium acnes
One test deals with P. acnes B872 (eryS). Briefly: Activity of the combination erythromycin/myrtle extract on P. acnes biofilm (24-well microplate). The following applies: erythromycin 1000 μg/ml alone, 24 h contact on 48 h biofilm. How it is done:
(§1) Myrtle extract is prepared according to example 2.
(§2) • Four Propionibacterium acnes strains were selected: Two Erythromycin-Resistant Strains (ERY R) • Propionibacterium acnes CIP 110371 • clinical isolate R4 Two Erythromycin-Sensitive Strains (ERY S) • Propionibacterium acnes CIP 53117T • clinical isolate B872 Protocol
(§3) A titrated suspension of P. acnes (about 10^6 CFU/ml), in minimal broth allowing no bacterial growth, was deposited in the wells of a 24-well microplate.
(§4) The microplates are placed under anaerobic conditions at 37±2° C. for 48 h, the time established for biofilm to form.
(§5) After 48 h, the supernatant of each well is discarded and then the wells are rinsed. Erythromycin and myrtle extract at various concentrations are added for a contact time of 24 h on the adhered cells (72 hours of adhesion in total).
(§6) The erythromycin concentration selected is 1000 μg/ml.
(§7) After 72 h of adhesion: • planktonic cells are counted • adhered (sessile) cells are counted after rinsing the well and then scraping in tryptone salt
(§8) Controls were prepared in parallel (adhered+planktonic cells) • 72 h biofilm control (with the medium changed at 48 h) • myrtle control at various concentrations (added after 48 h/24 h of contact) • 1000 μg/ml erythromycin control (added at 48 h/24 h of contact) • myrtle extract control at the concentrations tested
(§9) For all the wells in contact with erythromycin, 1 ml of each dilution is filtered on a membrane (Microfil®, Millipore) and then the filter is rinsed three times with 50 ml of sterile distilled water. The membranes are deposited on Columbia agar+5% sheep blood. The plates are incubated at 37±2° C. under anaerobic conditions. After 72 h to 96 h of incubation, the colony forming units (CFUs) are counted.
(§10) For all the biofilm controls and the myrtle extract alone, 100 μl of each dilution is inoculated by streaking on Columbia agar+5% sheep blood. The plates are incubated at 37±2° C. under anaerobic conditions. After 72 h to 96 h of incubation, the CFUs are counted. Results
(§11) This test consisted in evaluating the activity of erythromycin (1000 μg/ml) combined with myrtle extract, at concentrations of 0.03%, 0.001% and 0.0001%.
(§12) The results are expressed in log of the population counted.

In test [1] the test system is P. acnes CIP 110371 (eryR). The description is as above. The following applies: erythromycin 1000 μg/ml alone, 24 h contact on 48 h biofilm, limit of detection 1.3 log. The method, then:
as §1, §2, §3, §4, §5, §6, §7, §8, §9, §10, §11, §12

In test [2] the test system is P. acnes CIP 53117T (eryS). Described as above. Conditions: erythromycin 1000 μg/ml alone, 24 h contact on 48 h biofilm, limit of detection 1.3 log. How it is done: as §1, §2, §3, §4, §5, §6, §7, §8, §9, §10, §11, §12
The subject of another test is P. acnes R4 (eryR). The test is described as above. Conditions: erythromycin 1000 μg/ml alone, 24 h contact on 48 h biofilm. How it is done:
as §1, §2, §3, §4, §5, §6, §7, §8, §9, §10, §11, §12

Test [3] concerns two erythromycin-resistant strains (ERY R). Briefly: Bactericidal activity of erythromycin on isolated bacteria. The following applies: 1000 μg/ml. How it is done:
as §6

The subject of test [4] is P. acnes eryS strains and eryR strains. The experiment in a line: Erythromycin/myrtle extract on P. acnes biofilm, general conclusion over the strains. How it is done:
as §2, §3, §4, §5, §7

For `CC[C@H]1OC(=O)[C@H](C)[C@@H](O[C@H]2C[C@@](C)(OC)[C@@H](O)[C@H](C)O2)[C@H](C)[C@@H](O[C@@H]2O[C@H](C)C[C@H](N(C)C)[C@H]2O)[C@](C)(O)C[C@@H](C)C(=O)[C@H](C)[C@@H](O)[C@]1(C)O` [Ery, erythromycin], the “Planktonic cells, Log (number of CFU/well)” value is 1.3 Log (number of CFU/well) in the test on P. acnes B872 (eryS) (untreated control 4.0), 4.2 Log (number of CFU/well) in test [1] (untreated control 5.0), 1.3 Log (number of CFU/well) in test [2] (untreated control 5.5) and 3.5 Log (number of CFU/well) in the test on P. acnes R4 (eryR) (untreated control 3.7). Also, the “Adhered cells, Log (number of CFU/well)” value is 4.0 Log (number of CFU/well) with P. acnes B872 (eryS) (untreated control 4.4), 4.1 Log (number of CFU/well) in test [1] (untreated control 5.3), 4.3 Log (number of CFU/well) in test [2] (untreated control 5.1) and 3.5 Log (number of CFU/well) in the test with P. acnes R4 (eryR) (untreated control 4.5). Further, in test [3], the Bactericidal activity entry was “did not have bactericidal activity”. In test [4], the “Bactericidal activity of erythromycin alone” value is “high”.
